Structures can show the parent of a compound that is named as a salt. Bounds are passed on as bounds.

In data set [1] the target is T1, hCA I (Homo sapiens, UniProt P00915).
T1 construct: made in house
The data set can be described thus: stopped-flow CO2 hydrase assay, hCA I. Type of data set: biochemical. The settings on record: stopped flow technique, mean from 3 different assays. How it is done:
(§1) Target compounds of series (A) and (B) were screened as inhibitors concerning the physiologically relevant hCAs; cytosolic isoforms (hCA I and II) in addition to the transmembrane tumor related isoforms (hCA IX and XII) via a stopped-flow assay of carbonic anhydrase catalyzed CO2 hydration. Acetazolamide (AAZ), CA I drug, was also incorporated in the assays as a standard drug. […] Four CA isoforms inhibition activity was measured by assaying CA catalyzed CO2 hydration via an applied photophysics stopped-flow instrument. PRISM 3 and the Cheng-prusoff equation were used to determine the inhibition constant by non-linear least square methods as reported, and represent the mean from three different determination at least. All tested carbonic anhydrase isoforms were recombinant proteins prepared in lab as described earlier,[57].

Data set [2] addresses T2, hCA II (Homo sapiens, UniProt P00918).
T2 construct: made in house
Briefly: stopped-flow CO2 hydrase assay, hCA II. Type of data set: biochemical. Conditions: stopped flow technique, mean from 3 different assays. The procedure:
as §1

The target of data set [3] is T3, hCA IX (Homo sapiens, UniProt Q16790).
T3 construct: made in house
Briefly: stopped-flow CO2 hydrase assay, hCA IX. Type of data set: biochemical. The settings on record: for Ki: stopped flow technique, mean from 3 different assays; for Selectivity index (SI) I/IX: hCA IX over off-target hCA I; for Selectivity index (SI) II/IX: hCA IX over off-target hCA II. The procedure: as §1

Data set [4] deals with T4, hCA XII (Homo sapiens, UniProt O43570).
T4 construct: made in house
T4 sequence (O43570 25-354): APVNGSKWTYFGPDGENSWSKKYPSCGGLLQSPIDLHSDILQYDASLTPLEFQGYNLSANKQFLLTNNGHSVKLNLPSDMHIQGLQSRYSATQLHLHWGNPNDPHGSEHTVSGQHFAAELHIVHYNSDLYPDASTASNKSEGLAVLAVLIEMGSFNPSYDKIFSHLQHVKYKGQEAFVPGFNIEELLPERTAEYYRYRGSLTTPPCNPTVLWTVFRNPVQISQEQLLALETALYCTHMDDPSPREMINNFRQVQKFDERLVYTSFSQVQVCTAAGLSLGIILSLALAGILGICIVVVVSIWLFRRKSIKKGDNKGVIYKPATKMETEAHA
Briefly: stopped-flow CO2 hydrase assay, hCA XII. Type of data set: biochemical. The settings on record: for Ki: stopped flow technique, mean from 3 different assays; for Selectivity index (SI) I/XII: hCA XII over off-target hCA I; for Selectivity index (SI) II/XII: hCA XII over off-target hCA II. The procedure: as §1

The test system of data set [5] is CNS cancer (SNB-75). The data set can be described thus: NCI single dose SRB screen, SNB-75. The data set is classed as cell-based. The settings on record: Homo sapiens, SNB-75, 48 h, 10^−5 M single dose, read-out: GI% CNS cancer (SNB-75). How it is done: (§2) Target compounds in series (A) and (B), were submitted to the National Cancer Institute (NCI) Developmental Therapeutic Program (www.dtp.nci.nih.gov), where they have been assessed, in vitro for their anticancer activity. Two series (A) and (B), were screened in a single dose (10 µM) versus full panel composed of 60 cancer cell lines, in accordance with protocol of drug evaluation branch, NCI, Bethesda. Sulforhodamine B (SRB) colorimetric assay was used to determine cell growth and viability,[40].
(§3) Protocol of Drug Evaluation Branch, NCI, Bethesda, was adopted in the antitumor assay. Assessment of cell growth and viability was carried out utilizing SRB assay and 48 h drug exposure protocol as previously reported,[40].

Data set [6] has as its system Renal cancer (UO-31). The data set can be described thus: NCI single dose SRB screen, UO-31. Type of data set: cell-based. The settings on record: Homo sapiens, UO-31, 48 h, 10^−5 M single dose, read-out: GI% Renal cancer (UO-31). How it is done: as §2, §3
The subject of data set [7] is Breast cancer (MDA-MB-468). Briefly: NCI single dose SRB screen, MDA-MB-468. The data set is classed as cell-based. Conditions: Homo sapiens, MDA-MB-468, 48 h, 10^−5 M single dose, 48 h, SRB; read-out: GI% Breast cancer (MDA-MB-468). The procedure:
as §2, §3

The test system of data set [8] is Leukemia (SR). The data set can be described thus: NCI single dose SRB screen, SR. Type of data set: cell-based. The settings on record: 48 h, 10^−5 M single dose, read-out: GI% Leukemia (SR). How it is done: as §2, §3

T1 sequence (P00915 whole entry): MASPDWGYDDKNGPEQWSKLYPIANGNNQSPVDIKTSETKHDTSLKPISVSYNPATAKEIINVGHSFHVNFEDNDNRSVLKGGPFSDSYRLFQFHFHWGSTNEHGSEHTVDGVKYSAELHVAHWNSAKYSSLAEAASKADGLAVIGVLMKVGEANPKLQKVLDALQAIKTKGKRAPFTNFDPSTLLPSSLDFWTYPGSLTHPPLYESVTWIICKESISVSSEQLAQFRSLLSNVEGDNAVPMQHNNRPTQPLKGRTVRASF

Regarding `CC1(C)N=C(N)N=C(N)N1c1ccc(S(=O)(=O)Nc2nccs2)cc1` (as salt: HCl) [Compound 5c, 4-(4,6-Diamino-2,2-dimethyl-1,2-dihydro-1,3,5-triazin-1-yl)-N-(thiazol-2-yl)benzene-1-sulfonamide.HCl], the melting point (in general, the temperature, or range, at which the solid turns liquid) lay in the range of 216 to 218 °C.

For `NC1=NC2(CCCC2)N(c2ccc(S(N)(=O)=O)cc2)C(N)=N1` (as salt: HCl) [Compound 6a, 4-(7,9-Diamino-6,8,10-triazaspiro[4.5]deca-7,9-dien-6-yl) benzene-1-sulfonamide HCl], the melting point is 240 to 241 °C.

Take `NC1=NC2(CCCCC2)N(c2ccc(S(N)(=O)=O)cc2)C(N)=N1` (as salt: HCl) [Compound 6b, 4-(2,4-Diamino-1,3,5-triazaspiro[5.5]undeca-2,4-dien-1-yl)benzene-1-sulfonamide.HCl]: the melting point was in the range of 257 to 259 °C.

Molecule `CC1CCC2(CC1)N=C(N)N=C(N)N2c1ccc(S(N)(=O)=O)cc1` (centres unmarked) (as salt: HCl) [Compound 6c, 4-(2,4-Diamino-9-methyl-1,3,5-triazaspiro[5.5]undeca-2,4-dien-1-yl)benzene-1-sulfonamide.HCl] had a melting point of 245 to 247 °C.

Turning to `NC1=NC2(CCCC2)N(c2ccc(S(=O)(=O)Nc3ccccn3)cc2)C(N)=N1` (as salt: HCl) [Compound 6d, 4-(7,9-Diamino-6,8,10-triazaspiro[4.5]deca-7,9-dien-6-yl}-N-(pyridin-2-yl)benzene-1-sulfonamide.HCl], the melting point was 221 to 223 °C.

Molecule `NC1=NC2(CCCCC2)N(c2ccc(S(=O)(=O)Nc3ccccn3)cc2)C(N)=N1` (as salt: HCl) [Compound 6e, 4-(2,4-Diamino-1,3,5-triazaspiro[5.5]undeca-2,4-dien-1-yl)-N-(pyridin-2-yl)benzene-1-sulfonamide.HCl] displayed a melting point of 246 to 248 °C.

The molecule `CC1CCC2(CC1)N=C(N)N=C(N)N2c1ccc(S(=O)(=O)Nc2ccccn2)cc1` (centres unmarked) (as salt: HCl) [Compound 6f., 4-(2,4-Diamino-9-methyl-1,3,5-triazaspiro[5.5]undeca-2,4-dien-1-yl)-N-(pyridin-2-yl)benzene-1-sulfonamide.HCl] returned a melting point of 217 to 219 °C.

With `NC1=NC2(CCCCCC2)N(c2ccc(S(=O)(=O)Nc3ccccn3)cc2)C(N)=N1` (as salt: HCl) [Compound 6g, 4-(2,4-Diamino-1,3,5-triazaspiro[5.6]dodeca-2,4-dien-1-yl)-N-(pyridin-2-yl)benzene-1-sulfonamide.HCl], the melting point fell in the range of 239 to 241 °C.

`NC1=NC2(CCCC2)N(c2ccc(S(=O)(=O)Nc3nccs3)cc2)C(N)=N1` (as salt: HCl) [Compound 6h, 4-{7,9-Diamino-6,8,10-triazaspiro[4.5]deca-7,9-dien-6-yl}-N-(1,3-thiazol-2-yl)benzene-1-sulfonamide.HCl] yielded a melting point of 216 to 218 °C.

With `NC1=NC2(CCCCC2)N(c2ccc(S(=O)(=O)Nc3nccs3)cc2)C(N)=N1` (as salt: HCl) [Compound 6i, 4-(2,4-Diamino-1,3,5-triazaspiro[5.5]undeca-2,4-dien-1-yl)-N-(1,3-thiazol-2-yl)benzene-1-sulfonamide.HCl], the melting point is 245 to 247 °C.

On to `CC1CCC2(CC1)N=C(N)N=C(N)N2c1ccc(S(=O)(=O)Nc2nccs2)cc1` (centres unmarked) (as salt: HCl) [Compound 6j, 4-(2,4-Diamino-9-methyl-1,3,5-triazaspiro[5.5]undeca-2,4-dien-1-yl)-N-(1,3-thiazol-2-yl)benzene-1-sulfonamide.HCl], for which the melting point is 243 to 245 °C.

The molecule `CC1(C)N=C(N)N=C(N)N1c1ccc(S(=O)(=O)Nc2ccccn2)cc1.Cl` [Compound 5b, 4-(4,6-Diamino-2,2-dimethyl-1,2-dihydro-1,3,5-triazin-1-yl)-N-(pyridin-2-yl)benzene-1-sulfonamide HCl] yielded a melting point of 209 to 211 °C. Moreover, the inhibitory constant (Ki) – broadly, the equilibrium dissociation constant of an inhibitor or competing ligand from its target – in data set [1] is greater than 10 µM. Moreover, the Ki in data set [2] is greater than 10 µM. The molecule further showed a Ki in data set [3] greater than 10 µM. In data set [4], this molecule returned an inhibitory constant (Ki) greater than 10 µM. Moreover, in data set [5], the inhibition at 10 µM was 28%. In addition, the inhibition at 10 µM in data set [6] amounted to 11%. Besides, in [7], the inhibition at 10 µM is no more than 10%. Also, the inhibition at 10 µM in data set [8] is no more than 10%.

Regarding `CC1CCC2(CC1)N=C(N)N=C(N)N2c1ccc(S(=O)(=O)Nc2nccs2)cc1` (centres unmarked) [Compound 6j, 4-(2,4-Diamino-9-methyl-1,3,5-triazaspiro[5.5]undeca-2,4-dien-1-yl)-N-(1,3-thiazol-2-yl)benzene-1-sulfonamide.HCl], the Ki in data set [1], in [2], in data set [3] and in [4] was greater than 10 µM throughout. Besides, the inhibition at 10 µM in [5] is 29%; in data set [6], 17%; in data set [7] it was no more than 10%; in data set [8], no more than 10%.

The molecule `CC1(C)N=C(N)N=C(Nc2ccc(S(N)(=O)=O)cc2)N1` [Compound 7a, 4-[(4-Amino-6,6-dimethyl-1,6-dihydro-1,3,5-triazin-2-yl)amino]benzene-1-sulfonamide] showed a melting point of 268 to 270 °C. Also, in data set [1], the Ki was determined as 6.84 µM. In data set [2], the affinity corresponds to a Ki of 0.384 µM. Moreover, in data set [3], the “Selectivity index (SI) I/IX” value worked out at 23.2, the “Selectivity index (SI) II/IX” value came to 1.3 and the Ki came out at 0.295 µM. For the same molecule, in data set [4], the “Selectivity index (SI) I/XII” value stood at 1.5, the “Selectivity index (SI) II/XII” value is reported as 0.1 and the inhibition constant (Ki) came out at 4.65 µM. Besides, the inhibition at 10 µM in data set [5] was no more than 10%. Further, in [6], the inhibition at 10 µM came out at 12%. Also, the inhibition at 10 µM in [7] was no more than 10%. In addition, the inhibition at 10 µM in [8] is no more than 10%.

`NC1=NC2(CCCC2)NC(Nc2ccc(S(N)(=O)=O)cc2)=N1` [Compound 8a, 4-({9-Amino-6,8,10-triazaspiro[4.5]deca-7,9-dien-7-yl}amino)benzene-1-sulfonamide] yielded a melting point of 264 to 266 °C. This molecule also displayed a Ki in data set [1] of 0.0944 µM. The same molecule yielded a Ki in data set [2] of 3.62 µM. Besides, in [3], the “Selectivity index (SI) I/IX” value worked out at 0.1, the “Selectivity index (SI) II/IX” value was determined as 2.5 and the Ki came to 1.42 µM. Further, in [4], the “Selectivity index (SI) I/XII” value was 0.01; the “Selectivity index (SI) II/XII” value worked out at 0.5; the affinity, expressed as Ki, was 7.42 µM. The inhibition at 10 µM in data set [5] is 14%. Moreover, the inhibition at 10 µM in [6] worked out at 17%. In addition, the inhibition at 10 µM in [7] is no more than 10%. In [8], the inhibition at 10 µM is no more than 10%.

Turning to `NC1=NC2(CCCCC2)NC(Nc2ccc(S(N)(=O)=O)cc2)=N1` [Compound 8b, 4-({4-Amino-1,3,5-triazaspiro[5.5]undeca-2,4-dien-2-yl}amino)benzene-1-sulfonamide], the melting point was 270 to 272 °C. In data set [1], this molecule returned an inhibition constant (Ki) of 0.354 µM. Moreover, in data set [2], the Ki was determined as 3.16 µM. In data set [3], the “Selectivity index (SI) I/IX” value turned out to be 0.2, the “Selectivity index (SI) II/IX” value worked out at 1.4 and the affinity corresponds to a Ki of 2.28 µM. Further, in data set [4], the “Selectivity index (SI) I/XII” value came out at 0.1, the “Selectivity index (SI) II/XII” value amounted to 0.6 and the inhibitory constant (Ki) stood at 5.43 µM. In addition, the inhibition at 10 µM in data set [5] amounted to 21%. Moreover, the inhibition at 10 µM in data set [6] is no more than 10%. The inhibition at 10 µM in data set [7] was found to be 11%. For the same molecule, the inhibition at 10 µM in data set [8] turned out to be 15%.

Turning to `CC1CCC2(CC1)N=C(N)N=C(Nc1ccc(S(N)(=O)=O)cc1)N2` (centres unmarked) [Compound 8c, 4-({4-Amino-9-methyl-1,3,5-triazaspiro[5.5]undeca-2,4-dien-2-yl}amino)benzene-1-sulfonamide], the melting point was in the range of 264 to 266 °C. Further, the inhibitory constant (Ki) in data set [1] was determined as 0.408 µM. Besides, in [2], affinity was put at a Ki of 0.591 µM. In addition, in data set [3], the “Selectivity index (SI) I/IX” value is recorded as 0.3, the “Selectivity index (SI) II/IX” value is 0.5 and the Ki amounted to 1.22 µM. For the same molecule, in data set [4], the “Selectivity index (SI) I/XII” value was 0.4, the “Selectivity index (SI) II/XII” value is 0.6 and the Ki is 0.936 µM. Besides, the inhibition at 10 µM in data set [5] was no more than 10%. For the same molecule, the inhibition at 10 µM in data set [6] was no more than 10%. The inhibition at 10 µM in data set [7] is no more than 10%. The inhibition at 10 µM in [8] is no more than 10%.
